Results on 19 compounds are retold here after patent US20240016941A1, “COMBINATION THERAPY” (priority 2020, published 2024).

The target of test [1] is T1, LasB elastase activity of dialysed supernatant from P. aeruginosa PAO1 (Pseudomonas aeruginosa, UniProt P14756).
T1 construct: Culture supernatants are recovered by centrifugation and filtrated through a 0.22 μM filter; endogenous in cells; host or cells: P. aeruginosa strain PAO1, culture supernatant, filtered and dialysed
The experiment in a line: Elastin Congo-Red assay to determine % inhibition (dialysed PAO1 supernatant). Type of test: biochemical. As to conditions: read-out: Elastin hydrolysis % inhibition @ 25 μM inhibitor concentration. As for the experimental part:
(§1) Experiments were therefore conducted (1) to measure the potency of inhibition of compounds of the invention against purified Pseudomonas aeruginosa LasB enzyme and also experiments were conducted (2) to measure the ability of compounds of the invention to inhibit LasB-catalysed elastin degradation. The first assay uses a commercial fluorescent synthetic peptide and purified LasB enzyme. The LasB hydrolysis kinetics are measured allowing the determination of the IC50 and Ki of the inhibitors; the second is a more physiological assay using dialysed Pseudomonas aeruginosa supernatant as source of enzyme, plus its natural substrate Elastin. It is an “end point assay” that determines the percentage of LasB inhibition by each compound for one particular time point and inhibitor concentration. Technical details are described below:
The Elastin assay uses as source of enzyme dialysed supernatant from P. aeruginosa PAO1 and the Elastin Congo-Red as substrate. The natural LasB substrate, elastin, is complexed with the congo-red dye (Elastin Congo-Red, ECR). The elastolysis activity from the culture supernatant will degrade elastin and release the congo-red dye into the supernatant. This red dye release can be measured with a spectrophotometer.
Method: To determine LasB elastase activity and assess compound inhibition, an overnight culture of P. aeruginosa strain PAO1 is diluted in LB medium. After reaching an OD600nm of 0.6, this culture is diluted and incubated for additional 18-24 hours in a shaking incubator. Culture supernatants are recovered by centrifugation and filtrated through a […] filter. These supernatants are dialysed (filtration molecules <20 kDa) into a 50 mM Tris-HCl pH 7.4, 2.5 mM CaCl2 solution at 4° C. under agitation for 24 hours. Supernatant dialysed is then mixed volume/volume with the ECR suspension (20 mg/mL of ECR in 100 mM Tris-HCl pH 7.4 buffer supplemented with 1 mM CaCl2)) supplemented with Triton X100 (final concentration of 0.01%) in presence of DMSO (positive control) and/or different concentrations of compound (routinely 50 to 1.56 μM). As a negative control, the dialysed supernatant is replaced by Tris-HCl solution (50 mM Tris-HCl pH 7.4, 2.5 mM CaCl2). The mixed reaction is then incubated overnight in a 37° C. shaking incubator. The reaction supernatant is recovered by centrifugation and the release of congo-red is measured by its absorbance at 495 nm (OD495nm).
Percentage inhibition is determined using the following equation:
((OD495 nm value of positive control−OD495nm value of negative control)−(OD495nm value of treated supernatant−OD495nm value of negative control))/(OD495nm value of positive control−OD495nm value of negative control)×100.

Test [2] concerns the target T2, purified LasB protein from P. aeruginosa (Pseudomonas aeruginosa, UniProt P14756).
T2 construct: purchased Merck or Charles River Laboratories
The test can be described thus: Fluorometric assay to determine Ki (purified LasB, Abz-Ala-Gly-Leu-Ala-p-Nitro-Benzyl-Amide substrate). Type of test: biochemical. As for the experimental part: as §1
This assay uses commercially available substrate (Abz-Ala-Gly-Leu-Ala-p-Nitro-Benzyl-Amide (Ex: 340 nm, Em: 415 nm) from Peptide International) and purified LasB protein from P. aeruginosa (provided by Merck or Charles River Laboratories). It is performed to determine LasB elastase activity and assess compound inhibition in 96-well plate format. All compounds of Formula (I) were assessed using the method described below.
Method: 10 to 140 ng/ml purified LasB is incubated with 250 μM Abz-Ala-Gly-Leu-Ala-p-Nitro-Benzyl-Amide in 50 mM Tris-HCl pH 7.4, 2.5 mM CaCl2), 0.01% of Triton X100 at 37° C. LasB activity (corresponding to fluorescence emission induced by substrate hydrolysis) is measured over 30 min at 37° C. with a fluorescence plate reader such as the Perkin Elmer Envision or similar. Different range of inhibitor concentrations are routinely assessed depending of inhibitor potency from 0.0016 to 200 μM (2-fold dilutions series) in order to determine IC50.
The equation used to calculate the Ki from IC50 is: Ki=IC50/(1+([S]/Km)) where [S]=250 μM and Km=214 μM.

T1 sequence (P14756 198-498): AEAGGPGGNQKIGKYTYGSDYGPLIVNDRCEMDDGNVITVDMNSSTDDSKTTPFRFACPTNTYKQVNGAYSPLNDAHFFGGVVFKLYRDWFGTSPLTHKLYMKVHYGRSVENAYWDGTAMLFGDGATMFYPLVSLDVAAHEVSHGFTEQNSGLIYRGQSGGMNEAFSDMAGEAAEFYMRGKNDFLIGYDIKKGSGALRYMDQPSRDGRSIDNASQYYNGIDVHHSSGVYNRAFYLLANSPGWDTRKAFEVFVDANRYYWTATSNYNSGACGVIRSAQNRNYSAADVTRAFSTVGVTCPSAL
T2 sequence (P14756 198-498): as above

As to `COc1cc2sc(CNC(=O)C3(CC(=O)[O-])Cc4cc(F)c(F)cc4C3)nc2cc1OCC(=O)N1CC[N+](C)(C)CC1` [Example 14, 2-[2-[[5-[2-(4,4-dimethylpiperazin-4-ium-1-yl)-2-oxo-ethoxy]-6-methoxy-1,3-benzothiazol-2-yl]methylcarbamoyl]-5,6-difluoro-indan-2-yl]acetate], the inhibition at 25 µM in test [1] lay within 60 to 80%. Further, in test [2], the inhibition constant (Ki) – broadly, a dissociation constant, usually derived from enzyme kinetics or from competition with a known ligand – lay within 50 to 200 nM.

Turning to `COc1cc2sc(CNC(=O)C3(CC(=O)[O-])Cc4cc(F)c(F)cc4C3)nc2cc1OCCC[N+]1(C)CCOCC1` [Example 15, 2-[5,6-difluoro-2-[[6-methoxy-5-[3-(4-methylmorpholin-4-ium-4-yl)propoxy]-1,3-benzothiazol-2-yl]methylcarbamoyl]indan-2-yl]acetate], the inhibition at 25 µM in test [1] was in the range of 60 to 80%. The compound also showed a Ki in test [2] of 50 to 200 nM.

As for `COc1cc2sc(CNC(=O)C3(CC(=O)[O-])Cc4ccccc4C3)nc2cc1OCCC[N+]1(C)CCOCC1` [Example 16, 2-[2-[[6-methoxy-5-[3-(4-methylmorpholin-4-ium-4-yl)propoxy]-1,3-benzothiazol-2-yl]methylcarbamoyl]indan-2-yl]acetate], the inhibition at 25 µM in test [1] is 60 to 80%. This compound showed a Ki in test [2] of less than 50 nM.

Regarding `COc1cc2sc(CNC(=O)C3(CC(=O)[O-])Cc4ccccc4C3)nc2cc1OCC1CC[N+](C)(C)CC1` [Example 17, 2-[2-[[5-[(1,1-dimethylpiperidin-1-ium-4-yl)methoxy]-6-methoxy-1,3-benzothiazol-2-yl]methylcarbamoyl]indan-2-yl]acetate], the inhibition at 25 µM in test [1] lay in the range of 60 to 80%. The Ki in test [2] lay within 50 to 200 nM.

On to `CC[N+](C)(CC)CCCOc1cc2nc(CNC(=O)C3(CC(=O)[O-])Cc4ccccc4C3)sc2cc1OC` [Example 18, 2-[2-[[5-[3-[diethyl(methyl)ammonio]propoxy]-6-methoxy-1,3-benzothiazol-2-yl]methylcarbamoyl]indan-2-yl]acetate], for which, in test [1], the inhibition at 25 µM lay in the range of 60 to 80%. Also, in test [2], the Ki was less than 50 nM.

Take `COc1cc2sc(CNC(=O)C3(CC(=O)[O-])Cc4cc(F)c(F)cc4C3)nc2cc1OCCC[N+](C)(C)CCO` [Example 21, 2-[5,6-difluoro-2-[[5-[3-[2-hydroxyethyl(dimethyl)ammonio]propoxy]-6-methoxy-1,3-benzothiazol-2-yl]methylcarbamoyl]indan-2-yl]acetate]: the inhibition at 25 µM in test [1] is more than 80%. In test [2], this compound displayed a Ki of less than 50 nM.

Regarding `CN1CCN(C(=O)COc2ccc3sc(CNC(=O)C4(CC(=O)O)Cc5ccccc5C4)nc3c2)CC1` [Example 24, 2-[2-[[5-[2-(4-methylpiperazin-1-yl)-2-oxo-ethoxy]-1,3-benzothiazol-2-yl]methylcarbamoyl]indan-2-yl]acetic acid], in test [1], the inhibition at 25 µM is 60 to 80%. In test [2], this compound showed a Ki of 200 to 10000 nM.

Take `CN1CCN(CCOc2ccc3sc(CNC(=O)C4(CC(=O)O)Cc5ccccc5C4)nc3c2)CC1` [Example 25, 2-[2-[[5-[2-(4-methylpiperazin-1-yl)ethoxy]-1,3-benzothiazol-2-yl]methylcarbamoyl]indan-2-yl]acetic acid]: the inhibition at 25 µM in test [1] was in the range of 60 to 80%. In test [2], this compound came in with a Ki of 200 to 10000 nM.

Take `CN1CCN(C(=O)c2ccc3sc(CNC(=O)C4(CC(=O)O)Cc5ccccc5C4)nc3c2)CC1` [Example 27, 2-[2-[[5-(4-methylpiperazine-1-carbonyl)-1,3-benzothiazol-2-yl]methylcarbamoyl]indan-2-yl]acetic acid]: in test [1], the inhibition at 25 µM fell in the range of 60 to 80%. The compound further had an inhibitory constant (Ki) in test [2] of 50 to 200 nM.

As to `CN(C)C1CN(C(=O)c2ccc3sc(CNC(=O)C4(CC(=O)O)Cc5ccccc5C4)nc3c2)C1` [Example 32, 2-[2-[[5-[3-(dimethylamino)azetidine-1-carbonyl]-1,3-benzothiazol-2-yl]methylcarbamoyl]indan-2-yl]acetic acid], the inhibition at 25 µM in test [1] fell in the range of 60 to 80%. In addition, in test [2], the Ki was in the range of 50 to 200 nM.

Regarding `COc1cc2sc(CNC(=O)C3(CC(=O)O)Cc4ccccc4C3)nc2cc1C(=O)N1CCN(C)CC1` [Example 33, 2-[2-[[6-methoxy-5-(4-methylpiperazine-1-carbonyl)-1,3-benzothiazol-2-yl]methylcarbamoyl]indan-2-yl]acetic acid], the inhibition at 25 µM in test [1] was 60 to 80%. Further, the Ki in test [2] is less than 50 nM.

As to `COc1cc2sc(CNC(=O)C3(CC(=O)O)Cc4cc(F)c(F)cc4C3)nc2cc1C(=O)N1CCN(C)CC1` [Example 34, 2-[5,6-difluoro-2-[[6-methoxy-5-(4-methylpiperazine-1-carbonyl)-1,3-benzothiazol-2-yl]methylcarbamoyl]indan-2-yl]acetic acid], the inhibition at 25 µM in test [1] is more than 80%. The Ki in test [2] was less than 50 nM.

Turning to `COc1cc2sc(CNC(=O)C3(CC(=O)[O-])Cc4cc(F)c(F)cc4C3)nc2cc1C(=O)N1CC[N+](C)(C)CC1` [Example 35, 2-[2-[[5-(4,4-dimethylpiperazin-4-ium-1-carbonyl)-6-methoxy-1,3-benzothiazol-2-yl]methylcarbamoyl]-5,6-difluoro-indan-2-yl]acetate], the inhibition at 25 µM in test [1] was 60 to 80%. In addition, in test [2], the Ki fell in the range of 50 to 200 nM.

Turning to `COc1cc2sc(CNC(=O)C3(CC(=O)O)Cc4ccccc4C3)nc2cc1C(=O)N1CC(N(C)C)C1` [Example 36, 2-[2-[[5-[3-(dimethylamino)azetidine-1-carbonyl]-6-methoxy-1,3-benzothiazol-2-yl]methylcarbamoyl]indan-2-yl]acetic acid], in test [1], the inhibition at 25 µM is more than 80%. In test [2], this compound showed an inhibition constant (Ki) of less than 50 nM.

For `COc1cc2sc(CNC(=O)C3(CC(=O)O)Cc4cc(F)c(F)cc4C3)nc2cc1C(=O)N1CC(N(C)C)C1` [Example 37, 2-[2-[[5-[3-(dimethylamino)azetidine-1-carbonyl]-6-methoxy-1,3-benzothiazol-2-yl]methylcarbamoyl]-5,6-difluoro-indan-2-yl]acetic acid], the inhibition at 25 µM in test [1] is more than 80%. In test [2], this compound came in with a Ki of less than 50 nM.

As to `COc1cc2sc(CNC(=O)C3(CC(=O)O)Cc4ccccc4C3)nc2cc1C(=O)N1CCC(N(C)C)CC1` [Example 38, 2-[2-[[5-[4-(dimethylamino)piperidine-1-carbonyl]-6-methoxy-1,3-benzothiazol-2-yl]methylcarbamoyl]indan-2-yl]acetic acid], the inhibition at 25 µM in test [1] is 60 to 80%. This compound also displayed a Ki in test [2] of 50 to 200 nM.

On to `COc1cc2sc(CNC(=O)C3(CC(=O)O)Cc4ccccc4C3)nc2cc1C(=O)N1CCOC(CN(C)C)C1` (centres unmarked) [Example 40, 2-[2-[[5-[2-[(dimethylamino)methyl]morpholine-4-carbonyl]-6-methoxy-1,3-benzothiazol-2-yl]methylcarbamoyl]indan-2-yl]acetic acid], for which the inhibition at 25 µM in test [1] lay in the range of 60 to 80%. For the same compound, in test [2], the Ki fell in the range of 50 to 200 nM.

With `COc1cc2sc(CNC(=O)C3(CC(=O)[O-])Cc4ccccc4C3)nc2cc1C(=O)N1CCOC(C[N+](C)(C)C)C1` (centres unmarked) [Example 41, 2-[2-[[6-methoxy-5-[2-[(trimethylammonio)methyl]morpholine-4-carbonyl]-1,3-benzothiazol-2-yl]methylcarbamoyl]indan-2-yl]acetate], in test [1], the inhibition at 25 µM lay in the range of 60 to 80%. The Ki in test [2] was 50 to 200 nM.

Regarding `COc1cc2sc(CNC(=O)C3(CC(=O)[O-])Cc4ccccc4C3)nc2cc1C(=O)N1CC([N+](C)(C)C)C1` [Example 42, 2-[2-[[6-methoxy-5-[3-(trimethylammonio)azetidine-1-carbonyl]-1,3-benzothiazol-2-yl]methylcarbamoyl]indan-2-yl]acetate], in test [1], the inhibition at 25 µM is 60 to 80%. The same compound registered an inhibition constant Ki in test [2] of 200 to 10000 nM.
